Read-outs that look alike come from different tables or passages of the source.
Legend:
[1] = biological target: T1, equine serum BuChE (EqBuChE) (Equus caballus, UniProt P81908); assay: biochemical; conditions: read-out: BuChE IC50 ± SD
T1 construct: equine serum BuChE (EqBuChE); from tissue; host or cells: equine serum

SH-SY5Y cells [2] = assay: Neuroprotection against rotenone/oligomycin A, co-incubation, MTT; conditions: R/O mixture
[3] = pKa assay (UV spectra in buffers pH 5.6 to 12.4); assay type: physicochemical; conditions: phosphate buffers in methanol:water (1:1), pH 5.6 to 12.4, Experimental
Excerpt: LogP is one of properties used in Lipinski’s rule of five. Our compounds were designed as a potential drug in AD therapy. Fulfillment of Lipinski’s rule of five allows us to suppose that the compound will show adequate pharmacokinetics. […] In the chemical structure of our compound occur four nitrogen atoms with a free ion pair, which allow us to gradually ionize the whole compound at different pH value. […] Direct determination of the ratio between consecutive form of molecule allows to measure the pKa value (Figure 2). The change of distribution charge in molecule affects noticeably the change of the ultraviolet (UV) spectra. […] We used absorbance ratios and mathematical calculation allowed to estimate specific pH value for each ionized form and finally to calculate pKa values (Figure 3). The value pKa1 calculated by ChemAxon and ACD/Percepta software are close to value pKa1 obtained by our method. pKa2 value calculated by ChemAxon software and pKa2 calculated by ACD/Percepta were inflated in comparison with our experimental result pKa2 (Table 3). […]
Spectrophotometric measurement was performed in 96 wells plate by using Synergy H1 microplate reader (BioTek, Vinoosky, VT, USA) with Gen5 software (BioTek). […] Further calculations on UV spectra were performed by using mathematical ratios of absorbance 332/343 nm and 343/332 nm and according to methodology developed by Musil et al.. […]

[4] = DPPH free-radical scavenging assay; conditions: read-out: DPPH FRS50 ± SD
SH-SY5Y cells [5] = assay: Neuroprotection against oxidative stress, H2O2, MTT
[6] = In vitro cytotoxicity assay (MTT) on CCL-110; conditions: human, CCL-110 cells (normal human skin fibroblasts)
Procedure: Cytotoxicity assay was performed on CCL-110 cell line (normal, human fibroblasts derived from skin). Test over a wide range of concentrations (including the concentrations close to the IC50 of enzymatic inhibition results) was performed.

[7] = biological target: AChE-BACE-1A protein pair (Homo sapiens, UniProt P22303+P56817); assay: Yeast three-hybrid (Y3H) test, AChE-BACE-1A; conditions: 10 µM hybrid ligand, DDO/X/A agar plates
EeAChE = EeAChE (Electrophorus electricus, UniProt O42275); assay: Kinetic characterization of AChE inhibition (Lineweaver–Burk plot); assay type: biochemical, electric eel; conditions: Km and Vmax
Procedure: To obtain the mechanism of EeAChE inhibition, kinetic experiments were performed.
Kinetic characterization of AChE and BuChE was performed using the reported method with different concentrations of the substrate (S)—acetylthiocholine iodide (in range of […]) prepared in phosphate buffer (pH 8.0). […] Then, the inhibitor (14 µL) was added into the assay solution. Kinetic characterizations of the hydrolysis of acetylthiocholine […] catalyzed by AChE were done spectrophotometrically at 412 nm. A parallel control with no inhibitor in the mixture, allowed adjusting activities to be measured at various times.

Aβ (1–42) = Aβ (1–42) (Homo sapiens, UniProt P05067); assay: Self-induced Aβ(1–42) aggregation, Thioflavin T assay; assay type: biochemical
Excerpt: Aβ(1–42) is the most amyloidogenic Aβ fragment found in the AD plaques.
Amyloid β aggregation plays a definitive role in neurodegeneration and AD progression. Thus, inhibition of the Aβ aggregation has been presented as a promising approach for the AD therapy. In order to examine the ability to inhibit Aβ aggregation spectroscopic technique which is analyse with thioflavin T have been used. We investigated the best potent inhibitor towards AChE. […] As well as the study being conducted without the presence of the inhibitor. Aβ42 was dissolved in DMSO to make 125.8 µM stock solution. Each compound (10 µL) and 10 µL of Aβ42 were added into 60 µL of phosphate buffer (PBS at pH 8.0) in a 96-well plate. After shake and incubation for 24 h at 30 °C, 20 µL of 2.5 µM ThT solution in 50 mM glycine–NaOH (pH 8.5) was added. Fluorescence excitation was measured at 446 nm with emission a wavelength of 490 nm after 5 min incubation with the dye. The reported results were obtained as the mean ± SD of triplicates of three independent experiments. […]

[8] = ABTS radical scavenging assay; conditions: read-out: ABTS FRS50 ± SD
[9] = LogP assay (HPLC, calibration curve); assay type: physicochemical; conditions: reversed-phase HPLC, Waters Xbridge C18 column; Experimental
Procedure: After pKa assay we decided to use TEA because of the best properties for the assay. Coefficient of determination was over 0.96 for calibration curve (Figure 3). […] LogP values calculated by ChemAxon nad ACD/Percepta software were inflated in comparison to our experimental result (Table 3).
Methanol (POCH) was used as an organic modifier. Demineralized water was purified in our faculty. Triethylamine (TEA) (Sigma Aldrich) was dissolved in concentration 30 mM in methanol and in water. Ten various isocratic mobile phases were used in calibration and assay. The first mobile phase contained 50% methanol solution with 30 mM TEA and 50% water solution with 30 mM TEA. Each next mobile phase contained 5% more methanol solution; 95% methanol solution and 5% water solution mix was used as the last mobile phase; 30 mM triethylamine in all mobile phases allowed us to analyzed basic substances. Basic solutions were used, because a neutral form of the compounds was required in logP assay. […]
The test compound was eluted by all mobile phases and obtained retention times were used to calculate logkw value. LogP value was read from calibration curve. Obtained value was compared with calculated values by online software chemicalize.com (ChemAxon 2018) and ACD/Percepta Version 14.0.0 (Advanced Chemistry Development, Inc., Metropolitan Toronto, ON, Canada).

SH-SY5Y cells [10] = assay: Neuroprotection against rotenone/oligomycin A, pre-incubation, MTT; conditions: R/O mixture, compound 0.0001 µM
[11] = Homo sapiens, SH-SY5Y, read-out: % cell viability

Sequence of Aβ (1–42) (P05067 672-713 limits assumed): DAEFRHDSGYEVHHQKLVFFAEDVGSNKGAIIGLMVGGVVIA
T1 sequence (P81908 whole entry): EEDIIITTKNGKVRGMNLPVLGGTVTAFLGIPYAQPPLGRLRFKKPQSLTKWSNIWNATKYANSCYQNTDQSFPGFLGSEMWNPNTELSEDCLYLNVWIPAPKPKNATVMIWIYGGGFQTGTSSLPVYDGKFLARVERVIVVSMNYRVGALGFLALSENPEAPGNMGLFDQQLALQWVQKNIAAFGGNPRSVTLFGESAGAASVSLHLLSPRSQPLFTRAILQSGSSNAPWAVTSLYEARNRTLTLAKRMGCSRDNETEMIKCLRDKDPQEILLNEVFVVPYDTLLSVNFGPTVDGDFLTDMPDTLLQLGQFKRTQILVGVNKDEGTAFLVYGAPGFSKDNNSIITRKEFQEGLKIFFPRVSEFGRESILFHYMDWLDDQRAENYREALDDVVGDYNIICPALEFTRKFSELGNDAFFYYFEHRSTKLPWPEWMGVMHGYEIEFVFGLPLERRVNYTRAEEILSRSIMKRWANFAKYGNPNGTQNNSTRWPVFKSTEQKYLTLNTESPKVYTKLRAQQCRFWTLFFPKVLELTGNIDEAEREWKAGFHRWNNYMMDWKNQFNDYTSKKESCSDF
Sequence of EeAChE (O42275 24-633): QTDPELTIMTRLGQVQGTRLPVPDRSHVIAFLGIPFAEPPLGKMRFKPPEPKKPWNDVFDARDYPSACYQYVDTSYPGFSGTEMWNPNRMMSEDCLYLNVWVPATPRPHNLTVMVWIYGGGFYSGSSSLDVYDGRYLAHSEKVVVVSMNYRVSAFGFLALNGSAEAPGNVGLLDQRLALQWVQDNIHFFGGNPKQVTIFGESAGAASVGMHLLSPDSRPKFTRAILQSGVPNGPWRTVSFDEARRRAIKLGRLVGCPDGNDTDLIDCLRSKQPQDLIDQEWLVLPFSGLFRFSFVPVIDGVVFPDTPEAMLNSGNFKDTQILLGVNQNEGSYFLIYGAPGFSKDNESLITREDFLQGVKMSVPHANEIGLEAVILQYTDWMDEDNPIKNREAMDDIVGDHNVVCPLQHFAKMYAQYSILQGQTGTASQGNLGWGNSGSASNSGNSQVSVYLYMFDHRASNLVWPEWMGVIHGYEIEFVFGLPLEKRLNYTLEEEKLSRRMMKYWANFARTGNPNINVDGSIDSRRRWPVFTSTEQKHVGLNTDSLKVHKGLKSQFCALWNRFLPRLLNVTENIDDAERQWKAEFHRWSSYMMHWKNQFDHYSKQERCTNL
Sequence of AChE-BACE-1A protein pair (P22303 52-577): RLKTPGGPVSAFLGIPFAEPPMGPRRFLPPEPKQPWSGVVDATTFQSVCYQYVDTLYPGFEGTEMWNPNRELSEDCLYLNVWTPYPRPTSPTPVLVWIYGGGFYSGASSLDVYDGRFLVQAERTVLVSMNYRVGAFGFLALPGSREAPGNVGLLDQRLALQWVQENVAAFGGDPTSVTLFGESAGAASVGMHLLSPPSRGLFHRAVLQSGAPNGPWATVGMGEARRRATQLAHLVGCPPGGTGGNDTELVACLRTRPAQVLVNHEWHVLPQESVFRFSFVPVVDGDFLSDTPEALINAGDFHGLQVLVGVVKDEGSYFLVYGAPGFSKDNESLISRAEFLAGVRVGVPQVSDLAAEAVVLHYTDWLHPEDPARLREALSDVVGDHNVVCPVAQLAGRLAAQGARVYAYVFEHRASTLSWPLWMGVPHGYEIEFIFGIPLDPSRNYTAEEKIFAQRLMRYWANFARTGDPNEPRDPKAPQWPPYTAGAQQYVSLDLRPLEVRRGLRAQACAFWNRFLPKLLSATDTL
Sequence of AChE-BACE-1A protein pair (P56817 46-457): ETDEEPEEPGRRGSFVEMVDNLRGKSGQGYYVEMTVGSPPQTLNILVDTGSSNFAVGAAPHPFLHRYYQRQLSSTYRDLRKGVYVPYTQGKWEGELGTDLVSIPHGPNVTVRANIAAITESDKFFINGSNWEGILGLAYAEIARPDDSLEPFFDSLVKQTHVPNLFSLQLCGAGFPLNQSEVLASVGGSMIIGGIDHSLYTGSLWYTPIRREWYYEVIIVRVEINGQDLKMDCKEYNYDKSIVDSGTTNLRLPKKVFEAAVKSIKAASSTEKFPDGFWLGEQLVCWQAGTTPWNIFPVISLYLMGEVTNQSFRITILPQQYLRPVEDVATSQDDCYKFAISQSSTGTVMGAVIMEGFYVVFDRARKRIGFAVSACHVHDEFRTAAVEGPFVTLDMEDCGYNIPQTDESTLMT

In the case of `O=C(NCCCCCCNc1c2c(nc3ccccc13)CCC2)c1ccc(Cl)nc1` [Compound 3e], the IC50 [1] is reported as 0.153 ± 0.02 µM, the “neuroprotective properties (in words)” value (SH-SY5Y cells [2]) is reported as “did not have neuroprotective properties at any concentrations” and the pKa ([3]; read-out: pKa1) is reported as 8.53. For the same compound, the pKa ([3]; read-out: pKa2) was 11.3, the EC50 [4] was greater than 20000 µM and the “neuroprotective activity (in words)” value (SH-SY5Y cells [5]; H2O2 100 µM, compound 10–0.01 µM) was “at none concentration, 3e had neuroprotective activity”. It also gave a viability at 0.01 µM (SH-SY5Y cells [5]; [11]) of 60.4%, a viability at 0.1 µM (SH-SY5Y cells [5]; [11]) of 29.2% and a viability at 1 µM (SH-SY5Y cells [5]; [11]) of 18.4%. The viability at 10 µM (SH-SY5Y cells [5]; [11]) was 14.3%, the IC50 at 48 h [6] was 0.638 µM and the “hybrid ligand-induced interaction AChE-BACE-1A” value [7] was “Blue colonies, indicating putative interaction”. It also gave a viability at 24 h, 0.1 µM (in vitro) of 100%, a viability at 24 h, 1 µM (in vitro) of 99.7% and a viability at 24 h, 10 µM (in vitro) of 93%. The “type of EeAChE inhibition” value (EeAChE) was “mixed inhibition”, the IC50 (Aβ (1–42)) was 15 ± 0.6 µM and the inhibition at 10 µM (Aβ (1–42); 10 µM compound) was 40 ± 4.8%. It also gave an inhibition at 25 µM (Aβ (1–42); 25 µM compound) of 63 ± 4.2%, an inhibition at 50 µM (Aβ (1–42); 50 µM compound) of 72 ± 2.9% and an inhibition at 100 µM (Aβ (1–42); 100 µM compound) of 79 ± 3.2%. It also gave an EC50 [8] greater than 20000 µM, a chromatographic logP [9] of 3.99 and a neuroprotection (SH-SY5Y cells [10]) of 3.98%.

Source: paper PMC6386991 (International Journal of Molecular Sciences, 2019)
